For assay [1], the system named is KRas G12D-mediated Phosphorylation of ERK. The assay can be described thus: Inhibition of KRas G12D-mediated Phosphorylation of ERK in AGS cells. Format: cell-based. The conditions noted are these: Homo sapiens; AGS cells expressing G12D, 3 hours, phospho-ERK normalized to GAPDH. The gist of the method: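 AGS cells (endogenous KRas G12D) were treated with compounds for 3 h in 0.5% DMSO, then fixed, permeabilized and immunostained. The phospho-ERK (Thr202/Tyr204) signal was normalized to GAPDH in-cell by infrared detection and expressed as % of DMSO control. IC50 came from a 4-parameter fit.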

Assay [2] concerns the target T1, KRas G12D (Homo sapiens, UniProt P01116, G12D). The assay can be described thus: KRas G12D Surface Plasmon Resonance (SPR) Binding Assay. The conditions noted are these: Biacore T200, biotinylated Avidin-tagged KRAS protein on SA chip, 20 C, 1:1 binding model. The protocol: This Example illustrates that exemplary compounds of the present invention bind to KRas G12D as measured by surface plasmon resonance (SPR). Briefly, 1 L of 1.05×HBS-Mg buffer (262.5 mM BioUltra Hepes, pH 7.5, 157.5 mM NaCl, 105 mM MgCl2, 0.525 mM TCEP, […] Brij-35) was prepared and filter sterilized using a 0.22 μm bottle top filter. Approximately 50 mL of 1.05×HBS-Mg buffer was removed and saved for future dilutions. A 50 mL aliquot of DMSO (Sigma Aldrich DMSO Lot. #SHBK2079) was added and continued to stir for 10 minutes, creating the final 1.0×HBS-Mg buffer (250 mM BioUltra Hepes pH 7.5, 150 mM NaCl, 100 mM MgCl2, 0.5 mM TCEP, 0.03% Brij-35). Biacore T200 instrument was primed using 1.0×HBS-Mg buffer before docking a GE Streptavidin (SA) chip and then primed two additional times prior to beginning the immobilization step. All immobilized protein mixtures were created using 3-5 mg/mL Biotinylated Avidin-tagged KRAS protein using the following immobilization settings: SA chip type, 1 flow cells per cycle, 720 second contact time, and 5 μL/min flow rate. Normalization of the detector was also performed during the immobilization step using the GE BiaNormalize solution. All compounds were diluted to 10 mM in 100% DMSO prior to being diluted 20× in 1.05× buffer. Another 10× dilution was created using 1.0× buffer prior to performing a series of 3× dilutions to create a compound concentration curve using the following assay settings: 20 C analysis temperature, General Settings=10 Hz data collection rate and multi-detection; Assay Steps=all set to LMW kinetics; Cycle Types=LMW kinetics (60s contact time, 120s dissociation time, 100 μL/min flow rate, extra wash after injection with 50% DMSO, flow path 1,2,3,4); Flow path detection=2-1, 4-3). Data evaluation was performed using the Biacore T200 Evaluation software and data fit to 1:1 binding model.
A general note: Surface plasmon resonance follows binding to a sensor surface in real time, without labels.
Target sequence in this assay (P01116 1-188 isoform P01116-2 G12D): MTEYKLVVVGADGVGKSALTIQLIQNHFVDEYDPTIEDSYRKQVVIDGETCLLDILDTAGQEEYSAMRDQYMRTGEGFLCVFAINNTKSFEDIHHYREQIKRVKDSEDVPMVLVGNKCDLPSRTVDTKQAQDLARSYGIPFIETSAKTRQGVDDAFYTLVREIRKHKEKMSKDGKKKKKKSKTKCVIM

In assay [3] the target is T1, KRas G12D. In words: KRas G12D Binding Assay (TR-FRET displacement of labeled tracer). Further details: corresponding to amino acids 1:169, produced at Array BioPharma; biotin (protein is biotinylated). The conditions noted are these: TR-FRET displacement of Cy5 labelled tracer, biotinylated GDP-loaded KRAS G12D (aa 1:169), 60 minute incubation at 22° C. In outline: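 Biotinylated GDP-loaded human KRAS G12D (aa 1–169) incubated with Cy5 tracer, Eu-streptavidin and compound (2% DMSO final) in 50 mM HEPES pH 7.5, 5 mM MgCl2, 0.005% Tween-20, 1 mM DTT, 60 min at 22 °C. TR-FRET ratio converted to percent of control; IC50 at 50 POC from 4-parameter logistic fit.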
Target sequence in this assay (P01116 1-169 isoform P01116-2 G12D): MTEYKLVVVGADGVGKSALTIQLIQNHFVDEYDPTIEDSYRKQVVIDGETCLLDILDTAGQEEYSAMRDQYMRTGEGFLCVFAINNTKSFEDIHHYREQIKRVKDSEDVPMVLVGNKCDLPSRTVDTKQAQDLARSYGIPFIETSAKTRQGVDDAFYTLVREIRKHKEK
A general note: Time-resolved FRET reads energy transfer from a long-lived donor to a nearby acceptor.

Molecules are shown by their SMILES. A value given as a limit tells only on which side of the number the result lay.

This passage reports IC50 and Kd results from patent US12686692B2, “KRas G12D inhibitors” (Mirati Therapeutics, Inc., priority 2020, dated 2026).

In assay [1], `CC(Oc1nc2c(c(N3C[C@H]4CC[C@@H](C3)N4)n1)CCN(c1cc(O)c(Cl)c3ccccc13)C2)[C@@H]1CCCN1` (stereo partly drawn) [Example 26, 4-(4-((1R,5S)-3,8-diazabicyclo[3.2.1]octan-3-yl)-2-(1-((S)-pyrrolidin-2-yl)ethoxy)-5,8-dihydropyrido[3,4-d]pyrimidin-7(6H)-yl)-1-chloronaphthalen-2-ol] showed an IC50 of over 16.7 µM. For the same molecule, at KRas G12D [2], binding was characterised by a dissociation constant (Kd) of 0.325 µM.

As for `Cc1cccc(N2CCc3c(nc(OCC45CCCN4CCC5)nc3N3C[C@H]4CC[C@@H](C3)N4)C2)c1C(F)(F)F` [Example 64, 4-((1R,5S)-3,8-diazabicyclo[3.2.1]octan-3-yl)-7-(3-methyl-2-(trifluoromethyl)phenyl)-2-((tetrahydro-1H-pyrrolizin-7a(5H)-yl)methoxy)-5,6,7,8-tetrahydropyrido[3,4-d]pyrimidine], the figures for the IC50 (on KRas G12D [3]; in assay [1]) were 0.013 µM and over 16.7 µM, respectively. On KRas G12D [2], this molecule displayed a dissociation constant Kd of 0.0673 µM.

As for `CN1CCC[C@H]1COc1nc2c(c(N3C[C@H]4CC[C@@H](C3)N4)n1)CCN(c1cccc3ccc(F)cc13)C2` [Example 72, 4-((1R,5S)-3,8-diazabicyclo[3.2.1]octan-3-yl)-7-(7-fluoronaphthalen-1-yl)-2-(((S)-1-methylpyrrolidin-2-yl)methoxy)-5,6,7,8-tetrahydropyrido[3,4-d]pyrimidine], the results for the IC50 (at KRas G12D [3]; in assay [1]) were 0.226 µM and over 16.7 µM, respectively. For the same molecule, the equilibrium dissociation constant (Kd) at KRas G12D [2] worked out at 0.923 µM.

For `CN1CCC[C@H]1COc1nc2c(c(N3C[C@H]4C[C@@H](CC#N)[C@@H](C3)N4)n1)CCN(c1cccc3cccc(Cl)c13)C2` [Example 40, 2-((1R,5S,6S)-3-(7-(8-chloronaphthalen-1-yl)-2-(((S)-1-methylpyrrolidin-2-yl)methoxy)-5,6,7,8-tetrahydropyrido[3,4-d]pyrimidin-4-yl)-3,8-diazabicyclo[3.2.1]octan-6-yl)acetonitrile], the IC50 was 0.0639 µM on KRas G12D [3] and over 16.7 µM in assay [1]. The Kd at KRas G12D [2] came out at 0.957 µM.

For `CO[C@@H]1C[C@@H]2CN(c3nc(OC[C@@H]4CCCN4C)nc4c3CCN(c3cc(O)cc5ccccc35)C4)C[C@H]1N2` [Example 37, 4-(4-((1R,5R,6R)-6-methoxy-3,8-diazabicyclo[3.2.1]octan-3-yl)-2-(((S)-1-methylpyrrolidin-2-yl)methoxy)-5,8-dihydropyrido[3,4-d]pyrimidin-7(6H)-yl)naphthalen-2-ol], the half-inhibitory concentration (IC50) was 0.0881 µM on KRas G12D [3] and 3.85 µM in assay [1]. Moreover, on KRas G12D [2], the Kd came out at 12.8 µM.

For `C[C@@H]1CC2CN(c3nc(OC[C@@H]4CCCN4C)nc4c3CCN(c3cccc5cccc(Cl)c35)C4)C[C@H]1N2` (single isomer, unassigned) [Example 87], the concentration for half-maximal inhibition (IC50) was found to be 0.271 µM at KRas G12D [3] and 13.4 µM in assay [1]. The same molecule had a dissociation constant Kd at KRas G12D [2] of 0.705 µM.

In the case of `Clc1cccc2cccc(N3CCc4c(nc(OCC56CCCN5CCC6)nc4N4C[C@H]5CC[C@@H](C4)N5)C3)c12` [Example 29, 4-((1R,5S)-3,8-diazabicyclo[3.2.1]octan-3-yl)-7-(8-chloronaphthalen-1-yl)-2-((tetrahydro-1H-pyrrolizin-7a(5H)-yl)methoxy)-5,6,7,8-tetrahydropyrido[3,4-d]pyrimidine], the values for the half-maximal inhibitory concentration (IC50) (on KRas G12D [3]; in assay [1]) were 0.0025 µM and 4.05 µM, respectively. This molecule also showed a Kd at KRas G12D [2] of 0.0063 µM.

As for `CN1CCC[C@H]1COc1nc2c(c(N3C[C@H]4CC[C@@H](C3)N4)n1)CCN(c1cc(O)c(Cl)c3ccccc13)C2` [Example 24, 4-(4-((1R,5S)-3,8-diazabicyclo[3.2.1]octan-3-yl)-2-(((S)-1-methylpyrrolidin-2-yl)methoxy)-5,8-dihydropyrido[3,4-d]pyrimidin-7(6H)-yl)-1-chloronaphthalen-2-ol], the IC50 was 1.36 µM at KRas G12D [3] and over 16.7 µM in assay [1]. Moreover, the Kd on KRas G12D [2] was found to be 0.0377 µM.

As for `CN1CCC[C@H]1COc1nc2c(c(N3CC4CC(F)C(C3)N4)n1)CCN(c1cc(O)cc3ccccc13)C2` (stereo partly drawn) [Example 38, 4-(4-(6-fluoro-3,8-diazabicyclo[3.2.1]octan-3-yl)-2-(((S)-1-methylpyrrolidin-2-yl)methoxy)-5,8-dihydropyrido[3,4-d]pyrimidin-7(6H)-yl)naphthalen-2-ol], the figures for the half-inhibitory concentration (IC50) (at KRas G12D [3]; in assay [1]) were 0.0735 µM and 5 µM, respectively. Moreover, the Kd at KRas G12D [2] came to 2.34 µM.

For the molecule `CN1CCC[C@H]1COc1nc2c(c(N3CC4CC(O)C(C3)N4)n1)CCN(c1cc(O)cc3ccccc13)C2` (mixture of isomers) [Example 4, 3-(7-(3-hydroxynaphthalen-1-yl)-2-(((S)-1-methylpyrrolidin-2-yl)methoxy)-5,6,7,8-tetrahydropyrido[3,4-d]pyrimidin-4-yl)-3,8-diazabicyclo[3.2.1]octan-6-ol], the IC50 on KRas G12D [3] was determined as 0.0037 µM; in assay [1], 0.994 µM. The dissociation constant (Kd) on KRas G12D [2] was 0.0015 µM.

Regarding `CN1CCC[C@H]1COc1nc2c(c(N3C[C@H]4CC[C@@H](C3)N4)n1)CCN(c1c(F)ccc(F)c1C(F)F)C2` [Example 76, 4-((1R,5S)-3,8-diazabicyclo[3.2.1]octan-3-yl)-7-(2-(difluoromethyl)-3,6-difluorophenyl)-2-(((S)-1-methylpyrrolidin-2-yl)methoxy)-5,6,7,8-tetrahydropyrido[3,4-d]pyrimidine], the IC50 on KRas G12D [3] is over 10 µM; in assay [1] it was over 16.7 µM. Also, binding at KRas G12D [2] was characterised by a dissociation constant (Kd) of 97 µM.

For `CN1CCC[C@H]1COc1nc2c(c(N3C[C@H]4CC[C@@H](C3)N4)n1)CCN(c1cccc3cccc(CCC#N)c13)C2` [Example 80, 3-(8-(4-((1R,5S)-3,8-diazabicyclo[3.2.1]octan-3-yl)-2-(((S)-1-methylpyrrolidin-2-yl)methoxy)-5,8-dihydropyrido[3,4-d]pyrimidin-7(6H)-yl)naphthalen-1-yl)propanenitrile], the IC50 in assay [1] amounted to 11.1 µM. The same molecule gave a Kd on KRas G12D [2] of 0.617 µM.

`CN1CCC[C@H]1COc1nc2c(c(N3C[C@H]4CC[C@@H](C3)N4)n1)CCN(c1cccc3cccc(CCCCO)c13)C2` [Example 84, 4-(8-(4-((1R,5S)-3,8-diazabicyclo[3.2.1]octan-3-yl)-2-(((S)-1-methylpyrrolidin-2-yl)methoxy)-5,8-dihydropyrido[3,4-d]pyrimidin-7(6H)-yl)naphthalen-1-yl)butan-1-ol] displayed a 50% inhibitory concentration (IC50) at KRas G12D [3] of 3.69 µM. Also, at KRas G12D [2], the Kd is 8.71 µM.

`CN1CCC[C@H]1COc1nc2c(c(N3C[C@H]4CC[C@@H](C3)N4)n1)CC(=O)N(Cc1ccccc1)C2` [Example 53, 7-benzyl-4-((1R,5S)-3,8-diazabicyclo[3.2.1]octan-3-yl)-2-(((S)-1-methylpyrrolidin-2-yl)methoxy)-7,8-dihydropyrido[3,4-d]pyrimidin-6(5H)-one] gave an IC50 on KRas G12D [3] of 5.26 µM. At KRas G12D [2], this molecule returned an equilibrium dissociation constant (Kd) of over 1000 µM.

The molecule `Cc1c(O)cc(N2CCc3c(nc(OC[C@@H]4CCCN4C)nc3N3C[C@H]4CC[C@@H](C3)N4)C2)c2ccccc12` [Example 69, 4-(4-((1R,5S)-3,8-diazabicyclo[3.2.1]octan-3-yl)-2-(((S)-1-methylpyrrolidin-2-yl)methoxy)-5,8-dihydropyrido[3,4-d]pyrimidin-7(6H)-yl)-1-methylnaphthalen-2-ol] yielded an IC50 at KRas G12D [3] of over 10 µM. Also, binding on KRas G12D [2] was characterised by a dissociation constant (Kd) of 38.4 µM.

Take `CN1CCC[C@H]1COc1nc2c(c(N3C[C@H]4CC[C@@H](C3)N4)n1)CCN(c1c(O)ccc3ccccc13)C2` [Example 78, 1-(4-((1R,5S)-3,8-diazabicyclo[3.2.1]octan-3-yl)-2-(((S)-1-methylpyrrolidin-2-yl)methoxy)-5,8-dihydropyrido[3,4-d]pyrimidin-7(6H)-yl)naphthalen-2-ol]: at KRas G12D [3], the IC50 was over 10 µM. Also, the Kd on KRas G12D [2] came to 51.4 µM.

Consider `CN1CCC[C@H]1COc1nc2c(c(N3C[C@H]4CC[C@@H](C3)N4)n1)CCN(c1cccc3cccc(F)c13)C2` [Example 73, 4-((1R,5S)-3,8-diazabicyclo[3.2.1]octan-3-yl)-7-(8-fluoronaphthalen-1-yl)-2-(((S)-1-methylpyrrolidin-2-yl)methoxy)-5,6,7,8-tetrahydropyrido[3,4-d]pyrimidine], for which the 50% inhibitory concentration (IC50) on KRas G12D [3] came to 1.1 µM. The same molecule gave a dissociation constant Kd on KRas G12D [2] of 3.16 µM.

A word on the IC50: it is the concentration that gives 50% inhibition. The low end stands for higher potency, the high end for lower potency. By Kd is commonly meant the equilibrium constant for the complex coming apart. The low end stands for tighter binding, the high end for weaker binding.
